# Results from patent US12491180B2, “Application of compound in treating pneumonia” (SHENZHEN OPTIMUM BIOLOGICAL TECHNOLOGY CO., LTD., priority 2019, dated 2025).
# Where two headings read alike, the source gives them in different places.
# Tests used:
# [1] = system: Enterobacter aerogenes 8193; experiment: MIC, solid dilution method; format: cell-based; settings: Klebsiella aerogenes
# Procedure: CRE Enterobacter aerogenes 8193, a total of 1 strain;
# (§1) The above-mentioned glycerol-preserved strains were taken out from the −80° C. refrigerator, streaked and inoculated on MHA plates, labeled, and cultured overnight in a 37° C. incubator.
# (§2) The inoculum was prepared directly from bacterial suspension, and several recovered colonies were picked and directly prepared into a bacterial suspension with a turbidity of No. 0.5 McFarland units in normal saline, and a 10-fold dilution was made during inoculation.
# (§3) 6 bottles of MHA culture medium 500 mL/bottle were prepared, and the pH was adjusted to 7.2-7.4, sterilized at 121° C. for 15 min, and the medium was placed in a 55° C. water bath to keep warm.
# (§4) Sterile blank petri dishes were taken, and marked with each FL drug/concentration according to 2-fold dilution, and 10 concentrations of each drug starting from 8 μg/mL were tested.
# (§5) […]; 20 mL was aspirated and added to a petri dish consistent with the mark, and then 20 mL of MHA culture medium was added to the rest of the drug-containing culture medium, mixed evenly, that is, the 2-fold diluted drug-containing culture medium; 20 mL was aspirated and added to the petri dish consistent with the mark, and then diluted to the 10th concentration and the […] respectively by repeating the above-mentioned steps, and then poured into the petri dish.
# (§6) 4 bacterial control petri dishes without drug were prepared at the same time as a control.
# (§7) The positioning needle and the inoculation needle were installed according to the order of placement of the colony on the inoculation plate. After inoculation, a bacterial solution circle was formed on the petri dish. After the bacterial solution was absorbed by the agar, the petri dish was placed in an incubator at 37° C. for overnight incubation (16-20 hours), and then taken out.
# (§8) The minimum inhibitory concentrations of the compounds against the CRE and CSE strains were determined by the solid dilution method, and the results are shown in Tables 3 and 4.
# E. ae 14186 = experiment: MIC, solid dilution method; format: cell-based, Enterobacter aerogenes; settings: Klebsiella aerogenes, 14186
# Procedure: as §1, §2, §3, §4, §5, §6, §7, §8
# [2] = system: Enterobacter cloacae 11090; experiment: MIC, solid dilution method; format: cell-based
# Procedure: as §1, §2, §4, §6, §7
# [3] = system: Enterobacter cloacae 11699; experiment: MIC, solid dilution method; format: cell-based
# Procedure: as §1, §2, §4, §6, §7
# [4] = system: Enterobacter cloacae 14653; experiment: MIC, solid dilution method; format: cell-based
# Procedure: as §1, §2, §4, §6, §7
# E. coli 11256 = experiment: MIC, solid dilution method; format: cell-based; settings: Escherichia coli
# Procedure: as §1, §2, §3, §4, §5, §6, §7, §8
# Escherichia coli 11119 = experiment: MIC, solid dilution method; format: cell-based
# Procedure: as §1, §2, §3, §4, §5, §6, §7, §8
# Escherichia coli 13897 = experiment: MIC, solid dilution method; format: cell-based
# Procedure: as §1, §2, §3, §4, §5, §6, §7, §8
# Escherichia coli 14828 = experiment: MIC, solid dilution method; format: cell-based
# Procedure: as §1, §2, §3, §4, §5, §6, §7, §8
# Klebsiella oxytoca 12391 = experiment: MIC, solid dilution method; format: cell-based
# Procedure: as §1, §2, §3, §4, §5, §6, §7, §8
# Klebsiella oxytoca 14151 = experiment: MIC, solid dilution method; format: cell-based
# Procedure: as §1, §2, §3, §4, §5, §6, §7, §8
# Klebsiella oxytoca 14153 = experiment: MIC, solid dilution method; format: cell-based
# Procedure: as §1, §2, §3, §4, §5, §6, §7, §8
# Klebsiella oxytoca 6777 = experiment: MIC, solid dilution method; format: cell-based
# Procedure: as §1, §2, §3, §4, §5, §6, §7, §8
# [5] = system: Escherichia coli ATCC25922; experiment: MIC, solid dilution method; format: cell-based
# Procedure: (§9) (1) Standard strains: Escherichia coli BAA-2452, Escherichia coli ATCC25922, Klebsiella pneumoniae BAA-1705; all purchased from ATCC.
# as §1, §2, §3, §4, §5, §6, §7, §8
# [6] = system: Escherichia coli BAA-2452; experiment: MIC, solid dilution method; format: cell-based
# Procedure: as §9, §1, §2, §3, §4, §5, §6, §7, §8
# [7] = system: Klebsiella pneumoniae BAA-1705; experiment: MIC, solid dilution method; format: cell-based
# Procedure: as §9, §1, §2, §3, §4, §5, §6, §7, §8
# [8] = system: Klebsiella pneumoniae 11544; experiment: MIC, solid dilution method; format: cell-based
# Procedure: (§10) (2) Clinical isolated strains: CRE Klebsiella pneumoniae 5846, 11544, 12559, 13249 and CSE Klebsiella pneumoniae 8733, a total of 5 strains;
# as §1, §2, §3, §4, §5, §6, §7, §8
# [9] = system: Klebsiella pneumoniae 12559; experiment: MIC, solid dilution method; format: cell-based
# Procedure: as §10, §1, §2, §3, §4, §5, §6, §7, §8
# [10] = system: Klebsiella pneumoniae 13249; experiment: MIC, solid dilution method; format: cell-based
# Procedure: as §10, §1, §2, §3, §4, §5, §6, §7, §8
# [11] = system: Klebsiella pneumoniae 5846; experiment: MIC, solid dilution method; format: cell-based
# Procedure: as §10, §1, §2, §3, §4, §5, §6, §7, §8
# [12] = system: Klebsiella pneumoniae 8733; experiment: MIC, solid dilution method; format: cell-based
# Procedure: as §10, §1, §2, §3, §4, §5, §6, §7, §8
# [13] = system: Citrobacter freundii 7646; experiment: MIC, solid dilution method; format: cell-based
# Procedure: (§11) CRE Citrobacter freundii 9434, 9484 and CSE Citrobacter freundii 7646, a total of 3 strains;
# as §1, §2, §3, §4, §5, §6, §7, §8
# [14] = system: Citrobacter freundii 9434; experiment: MIC, solid dilution method; format: cell-based; settings: 9434
# Procedure: as §11, §1, §2, §3, §4, §5, §6, §7, §8
# [15] = system: Citrobacter freundii 9484; experiment: MIC, solid dilution method; format: cell-based
# Procedure: as §11, §1, §2, §3, §4, §5, §6, §7, §8
# [16] = system: Acinetobacter baumannii 6383; experiment: MIC, solid dilution method; format: cell-based
# Procedure: (§12) CRE Acinetobacter baumannii 8476, 6383, a total of 2 strains; CRE Serratia marcescens 14541, a total of 1 strain; all collected in the Department of Infectious Diseases, West China Hospital, Chengdu, Sichuan Province, and kept in our laboratory.
# as §1, §2, §3, §4, §5, §6, §7, §8
# [17] = system: Acinetobacter baumannii 8476; experiment: MIC, solid dilution method; format: cell-based
# Procedure: as §12, §1, §2, §3, §4, §5, §6, §7, §8
# [18] = system: Serratia marcescens 14541; experiment: MIC, solid dilution method; format: cell-based; settings: 14541
# Procedure: as §12, §1, §2, §3, §4, §5, §6, §7, §8
# 16 clinical CRE strains = experiment: MIC50, MIC90 and MIC range against 16 clinical CRE strains; format: cell-based
# Procedure: as §1, §2, §3, §4, §5, §6, §7, §8
compound,measurement,setting,value
CC1(C)[C@H](NC(=O)/C(=N\O[C@@H](COc2ccc3c(c2)CN(C(=N)N(CCN)CCN)C3)C(=O)O)c2csc(N)n2)C(=O)N1OS(=O)(=O)O [Compound 45],MIC,[1]; 8193,4 mg/L
same,MIC,E. ae 14186,2 mg/L
same,MIC,[2]; 11090,4 mg/L
same,MIC,[3]; 11699,0.25 mg/L
same,MIC,[4]; 14653,2 mg/L
same,MIC,E. coli 11256; 11256,0.25 mg/L
same,MIC,Escherichia coli 11119; 11119,8 mg/L
same,MIC,Escherichia coli 13897; 13897,0.5 mg/L
same,MIC,Escherichia coli 14828; 14828,2 mg/L
same,MIC,Klebsiella oxytoca 12391; 12391,1 mg/L
same,MIC,Klebsiella oxytoca 14151; 14151,2 mg/L
same,MIC,Klebsiella oxytoca 14153; 14153,2 mg/L
same,MIC,Klebsiella oxytoca 6777; 6777,2 mg/L
same,MIC,[5]; ATCC25922,0.125 mg/L
same,MIC,[6]; BAA2452,1 mg/L
same,MIC,[7]; BAA1705,2 mg/L
same,MIC,[8]; 11544,> 8 mg/L
same,MIC,[9]; 12559,0.5 mg/L
same,MIC,[10]; 13249,> 8 mg/L
same,MIC,[11]; 5846,1 mg/L
same,MIC,[12]; 8733,0.5 mg/L
same,MIC,[13]; 7646,1 mg/L
same,MIC,[14],2 mg/L
same,MIC,[15]; 9484,0.25 mg/L
same,MIC,[16]; 6383,> 8 mg/L
same,MIC,[17]; 8476,> 8 mg/L
same,MIC,[18],> 8 mg/L
same,MIC50,16 clinical CRE strains,4 mg/L
same,MIC90,16 clinical CRE strains,> 8 mg/L
"C[C@@H](O)[C@H]1C(=O)N2C(C(=O)O)=C(S[C@@H]3CN[C@H](C(=O)N(C)C)C3)[C@H](C)[C@H]12 [Meropenem, reference compound]",MIC,"[1]; E. ae 8193, CRE clinical isolate, MHA agar, 37° C., 16-20 hours, read-out: MIC",16 mg/L
same,MIC,E. ae 14186,0.125 mg/L
same,MIC,"[2]; E. cl 11090, CRE clinical isolate, MHA agar, 37° C., 16-20 hours, read-out: MIC",0.5 mg/L
same,MIC,"[3]; E. cl 11699, CSE clinical isolate, MHA agar, 37° C., 16-20 hours, read-out: MIC",< 0.015 mg/L
same,MIC,"[4]; E. cl 14653, CRE clinical isolate, MHA agar, 37° C., 16-20 hours, read-out: MIC",64 mg/L
same,MIC,"E. coli 11256; E. coli 11256, MHA agar, 37° C., 16-20 hours, read-out: MIC",< 0.015 mg/L
same,MIC,"Escherichia coli 11119; E. coli 11119, CRE clinical isolate, MHA agar, 37° C., 16-20 hours, read-out: MIC",16 mg/L
same,MIC,"Escherichia coli 13897; E. coli 13897, CRE clinical isolate, MHA agar, 37° C., 16-20 hours, read-out: MIC",4 mg/L
same,MIC,"Escherichia coli 14828; E. coli 14828, CRE clinical isolate, MHA agar, 37° C., 16-20 hours, read-out: MIC",8 mg/L
same,MIC,"Klebsiella oxytoca 12391; K. ox 12391, CRE clinical isolate, MHA agar, 37° C., 16-20 hours, read-out: MIC",2 mg/L
same,MIC,"Klebsiella oxytoca 14151; K. ox 14151, CRE clinical isolate, MHA agar, 37° C., 16-20 hours, read-out: MIC",16 mg/L
same,MIC,"Klebsiella oxytoca 14153; K. ox 14153, CRE clinical isolate, MHA agar, 37° C., 16-20 hours, read-out: MIC",32 mg/L
same,MIC,"Klebsiella oxytoca 6777; K. ox 6777, CRE clinical isolate, MHA agar, 37° C., 16-20 hours, read-out: MIC",16 mg/L
same,MIC,"[5]; E. coli ATCC25922, standard strain, MHA agar, 37° C., 16-20 hours, read-out: MIC",< 0.015 mg/L
same,MIC,"[6]; BAA2452, E. coli BAA-2452, standard strain, MHA agar, 37° C., 16-20 hours, read-out: MIC",16 mg/L
same,MIC,"[7]; BAA1705, K.p BAA-1705, standard strain, MHA agar, 37° C., 16-20 hours, read-out: MIC",16 mg/L
same,MIC,"[8]; K.p 11544, CRE clinical isolate, MHA agar, 37° C., 16-20 hours, read-out: MIC",32 mg/L
same,MIC,"[9]; K.p 12559, CRE clinical isolate, MHA agar, 37° C., 16-20 hours, read-out: MIC",4 mg/L
same,MIC,"[10]; K.p 13249, CRE clinical isolate, MHA agar, 37° C., 16-20 hours, read-out: MIC",64 mg/L
same,MIC,"[11]; K.p 5846, CRE clinical isolate, MHA agar, 37° C., 16-20 hours, read-out: MIC",8 mg/L
same,MIC,"[12]; K.p 8733, CSE clinical isolate, MHA agar, 37° C., 16-20 hours, read-out: MIC",0.03 mg/L
same,MIC,"[13]; C.f 7646, CSE clinical isolate, MHA agar, 37° C., 16-20 hours, read-out: MIC",< 0.015 mg/L
same,MIC,[14],> 128 mg/L
same,MIC,"[15]; C.f 9484, CRE clinical isolate, MHA agar, 37° C., 16-20 hours, read-out: MIC",0.06 mg/L
same,MIC,"[16]; A.B 6383, CRE clinical isolate, MHA agar, 37° C., 16-20 hours, read-out: MIC",64 mg/L
same,MIC,"[17]; A.B 8476, CRE clinical isolate, MHA agar, 37° C., 16-20 hours, read-out: MIC",64 mg/L
same,MIC,[18],128 mg/L
